[5FU] = 5-fluorouracil base, with d sugar it is 5-fluoro-2'-deoxyuridine (FdU); d = 2'-deoxy (DNA); r = 2'-OH (RNA)
What was measured:
[1] = tested on: thymidylate synthase (TS) protein; experiment: Immunoblot analysis of TS protein (free and ITC-bound), Odyssey quantitation; format: cell-based, human; settings: RKO cells, ssiRNA 1 nM, 48 hr; for Free TS (%) / ITC-Bound TS (%): normalized to free TS protein in mock-transfected cells (LF2000) set to 100%, mean ± S.D., 6 experiments
Method: (§1) FIGS. 1A-B illustrate the effect of FdU incorporation in ssiRNA on TS protein expression. RKO cells were transfected with TS6 ssiRNAs (1 nM) containing various 3′-overhangs. After 6 hr, the medium was replaced. After an additional 48 hr, cells were harvested and processed for immunoblot and qPCR analysis as described in the Materials and Methods section. (A) Representative blot from 4 experiments. (B) All qPCR values represent the mean±S.D. from at least 3 separate experiments performed in triplicate. The normalized amount of TS mRNA from mock-transfected cells (LF2000) was set to 1.0 and all other values compared against that value. ITC, inhibitory ternary complex;
Cells were plated at a density of 1.5×10^5 cells/well. On the following day, ssiRNAs were complexed with Lipofectamine 2000 (LF2000, Invitrogen) in serum-free RPMI-1640 medium and added to the plated cells. After 48 hr, cells were rinsed with PBS and scraped in cell lysis buffer (10 mM Tris pH7.4, 150 mM NaCl, 1 mM EDTA, 1% IGEPAL, 0.5% sodium deoxycholate, and 0.1% SDS) containing freshly added Protease Inhibitor Cocktail (Sigma; St. Louis, Mo.), 1 mM phenylmethylsulfonyl fluoride, and phosphatase inhibitors (Sigma). Lysates were sonicated and then centrifuged at 14,000 rpm for 30 min at 4° C. to remove debris. Cell lysates were stored at −80° C. for future use. For mRNA analysis, total RNA was extracted using Trizol (Invitrogen) and stored at −80° C. for future use.
(§2) Protein concentrations of cell lysates were determined using the DC Protein Assay (Bio-Rad; Hercules, Calif.). Equal amounts of protein (30 μg) from each cell lysate were resolved on SDS-PAGE using the method of Laemmli (Reference 19) and transferred onto 0.45 μm nitrocellulose membranes (Bio-Rad). Membranes were blocked and incubated overnight with primary antibodies at 4° C. The following antibodies were used in the experiments: anti-TS (Clone 4H4B1; Invitrogen), anti-TS (#5449; Cell Signaling; San Francisco, Calif.), anti-p21 Waf1/Cip1 (#2947; Cell Signaling), anti-p53 (#sc-126; Santa Cruz Biotechnology; Santa Cruz, Calif.), anti-PARP (#9542; Cell Signaling), anti-Fas (#4233; Cell Signaling), anti-phospho-histone H2A.X (Ser139) (#2577; Cell Signaling), anti-histone H2A.X (#7631; Cell Signaling), anti-phospho-ATM (pS1981; EPITOMICS Inc.; Burlingame, Calif.), anti-ATM (#A1106; Sigma), and anti-α-tubulin (EMD Biosciences; San Diego, Calif.). After multiple TBST washes (1×TBS, 0.1% Tween-20), membranes were incubated with corresponding horseradish peroxidase-conjugated secondary antibodies (Bio-Rad) for 1 hr at room temperature. Proteins were detected by the enhanced chemiluminescence method (SuperSignal West Pico substrate; Pierce; Rockford, Ill.). Quantitation of signal intensities was performed by densitometry on a Xerox scanner using NIH IMAGEJ software.
Immunoblots were prepared as described above. After incubation with anti-TS polyclonal antibody, membranes were blocked with the Odyssey blocking buffer and incubated with IRDye 800CW goat anti-rabbit antibody (LI-COR Biosciences; Lincoln, Nebr., USA) according to the manufacturer instructions. The fluorescent signal was detected and quantified using the Odyssey infrared imaging system (LI-COR).

TS mRNA = experiment: Real time qRT-PCR analysis of TS mRNA; format: cell-based, human; settings: RKO cells, ssiRNA 1 nM, 48 hr
Method: as §1
Cells were plated at a density of 1.5×10^5 cells/well. […]
The first-strand cDNA was synthesized using 1.0 μg total RNA and the iScript™ Reverse Transcription Supermix for real-time quantitative polymerase chain reaction (qRT-PCR) (Bio-Rad; Hercules, Calif.). PCR was performed in triplicate using the SsoFast™ Probes Supermix (Bio-Rad) in a final reaction volume of 10 μL with gene-specific primer/probe sets, and a standard thermal cycling procedure (40 cycles) on a Bio-Rad CFX96™ Real-Time PCR System. mRNA levels of TS and 18S RNA were assessed using the TaqMan Gene Expression real-time PCR assays (Applied Biosystems; assay ID: Hs00426586_m1 and Hs03928990_g1, respectively). Results were expressed as the threshold cycle (Ct). […]

[2] = tested on: human colon cancer RKO cell line; experiment: Cell proliferation assay (WST-1) in RKO cells; format: cell-based; settings: for IC50: 6 hr exposure then 96 hr growth, mean ± S.D., at least 3 experiments
Method: RKO cells were plated in 96-well plates at a density of 800 cells/well. On the following day, cells were incubated with ssiRNA/LF2000 complexes for 6 hr, after which time, the growth medium was replaced, and cells were grown for an additional 96 hr. Similarly, RKO cells were treated with FdU (#F0503, Sigma) for 6 hr followed by medium replacement and then allowed to grow for an additional 96 hr. Cell proliferation/viability was quantified by the WST-1 assay (Roche; Indianapolis, Ind.).

[3] = tested on: human colon cancer RKO cell line; experiment: Clonogenic assay in RKO cells; format: cell-based; settings: for IC50: 6 hr exposure, colonies counted after 8 days, mean ± S.D., at least 3 experiments
Method: RKO cells were plated in 6-well plates at a density of 600 cells/well. On the following day, cells were transfected with ssiRNA/LF2000 complexes for 6 hr after which time, the growth medium was replaced. Similarly, FdU was added to wells for 6 hr followed by medium replacement. After 8 days, cell colonies were fixed with Trypan blue solution (75% methanol/25% acetic acid/0.25% trypan blue), washed, and air-dried before counting colonies >50 cells.

[4] = tested on: p53, Fas, cleaved PARP, γH2AX, p-ATM; experiment: Immunoblot of DNA damage and apoptosis signaling proteins, time course; format: cell-based, human; settings: RKO cells, ssiRNA 10 nM, 0-72 hr
Method: FIG. 5 illustrates time-dependent effects of FdU-containing ssiRNAs on protein expression. RKO cells were transfected with various TS6 ssiRNAs (10 nM). After 6 hr, the medium was replaced, and cells were harvested for immunoblot blot analysis at the following times: before39 transfection (pre) and 0, 24, 48, and 72 hr after transfection. Images shown are representative blots from at least 4 different experiments; and
as §2

[5] = tested on: thymidylate synthase (TS) protein; experiment: Immunoblot analysis of TS protein (free and ITC-bound), Odyssey quantitation; format: cell-based, human; settings: RKO cells; for formation of the ITC immediately after transfection: ssiRNA 10 nM, 0 hr after 6 hr transfection
GC3/TK− cells = experiment: Cell proliferation (WST-1) in thymidine kinase-deficient GC3/TK− cells; format: cell-based, human; settings: 6 hr transfection, additional 5 days
Method: FIGS. 2A-B illustrate the effect of TK knockdown on the cytotoxicity of the FdU-modified ssiRNA. (A) RKO cells were transfected with 1 nM TK siRNA (lanes 3 and 4) or Mis-dU/dA (lane 5). After 6 hr, the medium was replaced with fresh medium. On the following day, cells were transfected with TS6-FdU/dA ssiRNA (1 nM) for 6 hr (lanes 2, 4, and 5) after which time, cells were harvested for immunoblot analysis. RKO cells were treated with 5-fluorouracil (5 nM) for 6 hr before harvesting (lane 6). (B) GC3/TK− cells were transfected with various concentrations of TS6-dU/dA or TS6-FdU/dA ssiRNA. After 6 hr, the medium was replaced and after an additional 5 days, cell proliferation was determined with the WST-1 assay;
The human colon cancer RKO cell line, originally obtained from ATCC, has been previously well-characterized and was maintained in RPMI-1640 (Invitrogen; Carlsbad, Calif.) with 10% (v/v) dialyzed fetal bovine serum at 37° C. in a humidified incubator with 5% CO2 (Reference 11). The thymidine kinase-deficient GC3/TK− cells were a gift from Dr. Janet Houghton (Reference 18). Cells were routinely authenticated by morphology and growth curve analysis. […]
RKO cells were plated in 96-well plates at a density of 800 cells/well. […] Cell proliferation/viability was quantified by the WST-1 assay (Roche; Indianapolis, Ind.).

RKO cells = experiment: Flow cytometry, FITC Annexin V apoptosis detection; format: cell-based, human; settings: ssiRNA 10 nM, after 72 hr
Method: FIGS. 6A-B illustrate induction of apoptosis after transfection of FdU-containing ssiRNAs. RKO cells were transfected with various TS6 ssiRNAs (10 nM). After 6 hr, the medium was replaced with fresh medium. After 72 hr, cells were harvested, fixed, stained, and analyzed by flow cytometry as described in the Materials and Methods section. (A) Representative cytometry images from one experiment. Lower left quadrant represents viable cells; lower right quadrant, early apoptotic cells; upper right quadrant, late apoptotic cells; upper left quadrant, necrotic cells. (B) Percentage values represent the mean±S.D. from 3 separate experiments.
RKO cells were plated in T-25 cm^2 flasks at a density of 2.5×10^5/flask. Cells were transfected on the following day with siRNA/LF2000 complexes for 6 hr. After medium replacement and additional incubation for 48 and 72 hr, respectively, cells were harvested, washed twice with PBS, resuspended in 1× binding buffer at a concentration of 1×10^6 cells/mL according to the manufacturer's protocol, stained with FITC Annexin V Apoptosis Detection Kit (BD Biosciences; San Jose, Calif.), and analyzed on the BD Accuri C6 Flow Cytometer (BD Accuri Cytometers Inc.; Ann Arbor, Mich.) at the UPCI Flow Cytometry Facility.

| Substance | effect on TS protein expression (in words) [1] | Free TS (%) [1] [%] | ITC-Bound TS (%) [1] [%] | effect on TS mRNA expression (in words) (TS mRNA) | IC50 [2] [nM] | IC50 [3] [nM] | biomarkers of DNA damage, γH2AX and p-ATM [4] | formation of the ITC immediately after transfection [5] | enhancement of IC50 versus non-targeted mismatch-FdU/dA, growth assay [2] [fold] | lower IC50 versus non-targeted mismatch-FdU/dA, clonogenic assay [3] [fold] | IC50 (GC3/TK− cells) [nM] | cleaved PARP, a marker of apoptosis [4] | p53 levels [4] | early and late apoptotic cells (RKO cells) | formation of the ITC after knockdown of thymidine kinase ([5]; TK siRNA 1 nM, next day TS6-FdU/dA 1 nM for 6 hr) |
| --- | --- | --- | --- | --- | --- | --- | --- | --- | --- | --- | --- | --- | --- | --- | --- |
| Mis-FdU/dA: control, non-targeted ssiRNA containing 5 FdU residues on the sense strand; SEQ ID NO: 21 and 22 (chain 1 GGAUACUGCCAAUCUCUAGGUUUUU; chain 2 CCUAGAGAUUGGCAGUAUCCAAAAA; chain 1: sugars from the 5' end r20 d5, [5FU] at 21, 22, 23, 24, 25, backbone not given here; chain 2: sugars from the 5' end r20 d5, backbone not given here) | absolutely no inhibitory effect | 89.5 ± 26.2 | 45.6 ± 21.1 | absolutely no inhibitory effect | 2.88 | 1.75 | little to no effect | formation of the ITC is observed |  |  |  |  |  |  |  |
| TS6-FdU/dA: TS-targeted ssiRNA, all 3′-end overhang dU of sense strand replaced with FdU (5 FdU); SEQ ID NO: 9 and 10 (chain 1 GGAUAUUGUCAGUCUUUAGGUUUUU; chain 2 CCUAAAGACUGACAAUAUCCAAAAA; chain 1: sugars from the 5' end r20 d5, [5FU] at 21, 22, 23, 24, 25, backbone not given here; chain 2: sugars from the 5' end r20 d5, backbone not given here) |  | 29.8 ± 12.0 | 22.0 ± 11.8 |  | 0.81 | 0.17 | strongly induced | formation of the ITC is observed | 3.5 | 10 | 45.9 ± 18.6 | elevated | rapidly induced | significant increase | prevented formation of the ITC |
